# Source: patent US20200239921A1, “CHEMOENZYMATIC SYNTHESIS OF S-NUCLEOSYL AMINO ACIDS (SNA), ANALOGS OF S-ADENOSYL-L-METHIONINE AND S-ADENOSYL-L- HOMOCYSTEINE AND USES THEREOF” (ALBERT EINSTEIN COLLEGE OF MEDICINE, priority 2016, published 2020)
# Legend:
# [1] = molecular target: T1, S-adenosyl-L-homocysteine hydrolase from Lupinus luteus (L/SAHH) (Lupinus luteus, UniProt Q9SP37); assay: SAHH-catalysed synthesis of SAH analogs; type: biochemical; details: in vitro, reaction displaced toward SAH production
# T1 construct: made in house; host or cells: E. coli
# T1 sequence (Q9SP37 1-485): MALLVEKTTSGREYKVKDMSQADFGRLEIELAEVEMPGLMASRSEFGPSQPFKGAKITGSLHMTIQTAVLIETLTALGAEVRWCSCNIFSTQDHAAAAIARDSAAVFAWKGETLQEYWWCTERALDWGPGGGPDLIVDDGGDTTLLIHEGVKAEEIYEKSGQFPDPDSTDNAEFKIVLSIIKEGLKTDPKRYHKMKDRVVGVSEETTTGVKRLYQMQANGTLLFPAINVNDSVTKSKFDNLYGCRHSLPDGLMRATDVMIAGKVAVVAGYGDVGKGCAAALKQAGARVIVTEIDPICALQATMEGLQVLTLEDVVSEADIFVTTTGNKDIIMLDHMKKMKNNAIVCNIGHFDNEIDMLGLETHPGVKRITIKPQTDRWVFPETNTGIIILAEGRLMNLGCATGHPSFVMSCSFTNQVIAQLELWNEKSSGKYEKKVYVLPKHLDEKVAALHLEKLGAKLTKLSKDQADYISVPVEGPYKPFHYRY
# From the text: Alternative chemoenzymatic routes. A few SNA probes are difficult to prepare. To broaden the substrate diversity, the reversible reaction catalyzed by S-adenosyl-L-homocysteine hydrolase from Lupinus luteus (L/SAHH) that is displaced toward SAH production in vitro was used (FIG. 5B). […] This powerful catalyst was a useful tool for production of S-nucleosyl-L-homocysteine and S-nucleosyl-L-cysteine analogs (SNH and SNC, respectively). Unlike SAM analogs, SNH and SNC probes are not substrates for PRMTs, so they are assayed as competitive inhibitors.
# PRMT1 = details: cited from earlier work
# [2] = molecular target: T2, Methanococcus jannaschii MAT (MjMAT) (Methanocaldococcus jannaschii, UniProt Q58605); assay: MjMAT substrate specificity (HPLC); type: biochemical; details: in the presence of ATP
# T2 construct: made in house; host or cells: E. coli
# T2 sequence (Q58605 1-406): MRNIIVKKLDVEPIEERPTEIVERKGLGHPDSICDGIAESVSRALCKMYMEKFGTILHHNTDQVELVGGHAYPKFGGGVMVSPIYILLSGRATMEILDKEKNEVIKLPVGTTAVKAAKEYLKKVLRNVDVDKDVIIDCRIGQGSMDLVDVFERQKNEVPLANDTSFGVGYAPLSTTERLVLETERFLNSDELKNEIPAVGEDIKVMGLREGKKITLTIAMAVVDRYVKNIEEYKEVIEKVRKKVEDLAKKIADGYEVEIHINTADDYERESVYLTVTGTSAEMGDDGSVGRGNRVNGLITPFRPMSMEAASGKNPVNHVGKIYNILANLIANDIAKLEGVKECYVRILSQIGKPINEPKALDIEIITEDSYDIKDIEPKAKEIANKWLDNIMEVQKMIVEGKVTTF
# Procedure: Synthetic chemical approaches yield a 1:1 mixture of the two SAM stereoisomers (FIG. 4A, shaded middle frame). The enzymes that catalyze the formation of SAM from ATP and L-methionine in vivo are used to produce SAM analogs (MAT; FIG. 4A, top enzymatic approach). Adenosine phosphorylation is performed by kinases (e.g. adenosine kinase ‘AK’, myokinase ‘MK’ and pyruvate kinase ‘PK’; FIG. 4, top enzymatic approach). MAT proteins are well characterized and several mechanistic and structural biology reports make these enzymes the preferred biocatalyst for rapid access to SAM analogs. Methanococcus jannaschii MAT has been purified (MjMAT; FIG. 4B).
# (§1) An enzyme array to incorporate a broad spectrum of methionine analogs. To expand the SNA library, the reactivity of several methionine analogs (FIG. 4C, amino-acid tail labelled ‘METHIONINE’) was screened toward MjMAT in the presence of ATP. […] MAT enzymes from Neisseria meningitidis (Nm) and Campylobacter jejuni (Cj) (FIG. 4B) were expressed and purified.
# [3] = system: MAT from Neisseria meningitidis (NmMAT); assay: NmMAT methionine analog specificity; type: biochemical; details: FIG. 6
# From the text: as §1
# [4] = system: MAT from Campylobacter jejuni (CjMAT); assay: CjMAT methionine analog specificity; type: biochemical; details: FIG. 6
# From the text: as §1
# [5] = molecular target: T3, SAM-dependent chlorinase from Salinispora tropica (StSalL) (Salinispora tropica, UniProt A4X3Q0); assay: StSalL methionine analog specificity; type: biochemical; details: in the presence of 5′-chloro-5′-deoxy adenosine
# T3 construct: made in house; host or cells: E. coli
# T3 sequence (A4X3Q0 1-283): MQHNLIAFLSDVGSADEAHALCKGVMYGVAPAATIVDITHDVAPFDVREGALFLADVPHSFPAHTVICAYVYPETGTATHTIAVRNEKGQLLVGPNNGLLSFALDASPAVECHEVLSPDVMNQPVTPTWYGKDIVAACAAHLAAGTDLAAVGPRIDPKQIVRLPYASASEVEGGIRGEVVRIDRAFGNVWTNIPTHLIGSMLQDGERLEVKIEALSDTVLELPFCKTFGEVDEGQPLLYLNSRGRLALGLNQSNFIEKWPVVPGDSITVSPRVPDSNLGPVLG
# Procedure: The unique SAM-dependent chlorinase from the marine organism Salinispora tropica (StSalL) is a key enzyme for salinosporamide A biosynthesis. Although the occurrence of high chloride concentration (i.e. 546 mM) in sea water shifts the chemical equilibrium away from SAM synthesis, this reaction is reversible in vitro. StSalL (FIG. 4B) was expressed and purified, and the methionine analog specificity for this enzyme was determined in the presence of 5′-chloro-5′-deoxy adenosine (5′-ClDA; FIG. 6).
# [6] = system: AK/MK/PK enzymatic system; assay: AK/MK/PK enzymatic conversion to nucleoside triphosphate; type: biochemical
# methyltransferases = details: FIG. 2 first row from table; cited from earlier work
compound,measurement,setting,value
N[C@@H](CS)C(=O)O [L-cysteine],utilization as substrate by SAHH,[1],could utilize
NCCCSC[C@H]1O[C@@H](n2cnc3c(N)ncnc32)[C@H](O)[C@@H]1O [S-(5′-adenosyl)-3-thiopropylamine],selectivity for PRMT1 over PRMT6,PRMT1,10 fold
"CSCC[C@H](N)C(=O)O [M0, L-methionine]",reactivity of methionine analog toward MjMAT,[2],efficiently processed
"CSCC[C@@H](N)C(=O)O [M1, D-methionine]",reactivity of methionine analog toward MjMAT,[2],efficiently processed
"CSCCC(O)C(=O)O (centres unmarked) [M4, 2-hydroxy-4-(methylthio) butanoic acid]",reactivity of methionine analog toward MjMAT,[2],reactivity was not observed
same,reactivity of methionine analog toward NmMAT,[3],reactivity was not observed
same,reactivity of methionine analog toward CjMAT,[4],reactivity was not observed
same,reactivity of methionine analog toward StSalL,[5],Reactivity was observed
"CSCC[C@](C)(N)C(=O)O [M2, α-methyl-methionine]",reactivity of methionine analog toward NmMAT,[3],substrate
same,reactivity of methionine analog toward CjMAT,[4],substrate
"CSCC[C@H](N)CO [M3, (S)-(−)-methioniol]",reactivity of methionine analog toward CjMAT,[4],excellent substrate
Nc1ncnc2c1ncn2[C@@H]1O[C@H](CO)[C@@H](O)[C@@H]1F [942′-deoxy-2′-fluoro-β-D-arabinofuranosylladenine],reactivity in AK/MK/PK enzymatic system,[6],low reactivity
N[C@@H](CCS)C(=O)O [L-homocysteine],utilization as substrate by SAHH,[1],could utilize
"Nc1ncnc2c1ncn2[C@@H]1O[C@H](CSCC[C@H](N)C(=O)O)[C@@H](O)[C@H]1O [SAH, S-adenosyl-L-homocysteine]",inhibition of methyltransferases (in words),methyltransferases,"potent, yet non-specific, inhibitor of methyltransferases"
